Earlier results in PubChem BioAssay AID1259409 (Chemical Carcinogenesis Research Information System (CCRIS), 2018).

Tested on: rodent chemically induced tumor inhibition, incidence and multiplicity
Assay: CCRIS tumor inhibitor studies
Settings: for tumour outcome (control, treated, inhibition, significance): Carcinogen: BENZO[A]PYRENE, 50-32-8, Dose [Inhibitor]: 0, 12.85 MG/ML IN DRINKING WATER FOR 6 WK (STUDY DURATION: 9 WK), Route [Inhibitor]: ORAL, Species: MOUSE, Target Tissue: Type of Lesion: LUNG: ADENOMA, Dose [Carcinogen]: 0.5 MG INJECTED IN THE SCAPULAR REGION OF NEWBORN MICE ONCE, Promoter: NONE USED

Compound	tumour outcome (control, treated, inhibition, significance) (Strain/Sex: NIGP(S)/FEMALE)	tumour outcome (control, treated, inhibition, significance) (Strain/Sex: NIGP(S)/MALE)	outcome (Carcinogen: N-METHYL-N-NITROSOUREA [684-93-5], Dose [Inhibitor]: 0.05% IN DRINKING WATER, 2 WKS BEFORE CARCINOGEN AND FOR 26 WKS AFTER, Route [Inhibitor]: DRINKING WATER, Species: RAT, Strain/Sex: SPRAGUE-DAWLEY/FEMALE, Target Tissue: Type of Lesion: MAMMARY GLAND: CARCINOMA, Dose [Carcinogen]: 50 MG/KG BW ONCE AT 7 WKS OF AGE (IN SALINE SOLUTION))
CC1(C)CCC2(C(=O)OC3OC(CO)C(O)C(O)C3O)CCC3(CO)C(=CCC4C5(C)CC(O)C(O)C(C)(C(=O)OC6OC(CO)C(O)C(O)C6O)C5CCC43C)C2C1 (stereo not drawn)	56%, 53%, 5%, not calculated	38%, 37%, 3%, not calculated	–
[K+]	–	–	8/11 (73%) vs 10/11 (94%) at 16 wks
